Data on 13 molecules can be found in patent EP4670717A1, “PYRROLIDINE-FUSED MYRTANOL DERIVATIVES AS INHIBITORS AND/OR DEGRADERS OF IDO1 UND USE THEREOF” (Max-Planck-Gesellschaft zur Förderung der Wissenschaften …, priority 2024, dated 2025).

SMILES strings stand for the structures. Entries after “also recorded” stand apart in the source; their conditions may differ. Read-outs that look alike come from different tables or passages of the source. Bounds are passed on as bounds.

The target in assay [1] is T1, IDO1 (Homo sapiens, UniProt P14902).
T1 construct: BxPC3 cells were seeded in phenol red-free RPMI 1640 medium; endogenous in cells; host or cells: BxPC3 cells stimulated with IFN-γ (50 ng/mL)
Put plainly: IDO1 degradation in BxPC3 cells, IDO1 protein levels by immunoblotting.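 On all read-outs here: IDO1 bands on Western blots detected with fluorescent dye-labelled secondary antibodies and quantified by band intensity, values are means of n biological replicates.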 The format is cell-based. The note with it: for Dmax at 0.1 µM: BXPC-3, BxPC3 cells; for Dmax at 0.1 µM / Dmax [%] (n): 50 ng/ml IFN-γ 24 h, washout, compound (100 nM) 24 h, maximum IDO1 degradation at 0.1 µM.
Protocol: To analyze IDO1 levels, IFN-γ-stimulated BxPC3 cells (50 ng/mL IFN-γ), U2OS cells (5 ng/mL IFN-γ), HEK^rhIDO1 (HEK293T cells electroporated with rhIDO1), SKOV3 and BT549 cells were treated with compounds for the indicated times (6 h to 24 h) followed by cell lysis (150 mM sodium chloride in 50 mM Tris (pH 8.0) and 1% NP-40 Alternative, protease and phosphatase inhibitors). Protein concentrations were determined (DC protein assay, Bio-Rad) followed by addition of 1 × SDS loading buffer and protein separation by a 10% SDS-PAGE. Separated protein samples were transferred to a polyvinylidene difluoride (PVDF) membrane using a wet-tank blotting system (Bio-Rad). IDO1 as well as vinculin as a loading were detected using the primary antibodies anti-IDO1 (ab211017, abcam or 14-9750-80, Thermo Fisher), anti-vinculin (V9131, Thermo Fisher) and anti-β-actin (ab8227, abcam) in 5 % milk in PBS-buffered saline with 0.05 % (v/v) Tween-20 (PBS-T). Primary antibodies were incubated at 4°C overnight and detected with IRDye-conjugated secondary antibodies (LI-COR Biosciences). IDO1 protein level in BT549 and SKOV3 cells was detected with HRP conjugated secondary antibody and SuperSignal™ West Dura Extended Duration Substrat (Thermo Fisher Scientific). Washing steps were performed with PBS-T. Protein bands were visualized by ChemiDoc™ MP (Bio-Rad) using a fluorescent readout. Band intensities were quantified using Image Lab software.
In order to differentiate between these different activities, we explored the modes of action of selected compounds in an in vitro assay employing recombinant human IDO1 (rhIDO1) monitoring enzymatic activity only, and we characterized the degradation efficiency by means of Western blotting, determining maximum degradation levels at 0.1µM (Dmax) and half maximum degradation concentration (DC50) (Table B-2). […] Data are mean values of n biological replicates. Dmax corresponds to maximum levels of IDO1 degradation at 0.1 µM.

In assay [2] the target is T1, IDO1. The experiment in a line: Kyn assay in BxPC-3 cells (Kyn levels after IFN-γ and Trp).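 On all read-outs here: kyn levels expressed relative to DMSO-treated control cells.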 Conditions: for activity in the cell-based kynurenine assay: result in words. The format is cell-based.
Protocol: BxPC3 cells were seeded in phenol red-free RPMI 1640 medium in 1536-well or 384-well plates (Greiner #782086, Corning #3770) 24 h prior to the addition of compounds, IFN-γ (50 ng/mL, PeproTech) and L-Trp (380 µM, Sigmal-Aldrich). After 48 h of incubation, first cell viability was accessed by the addition of Hoechst-33342. Afterwards, trichloroacetic acid (TCA, Sigma-Aldrich) was added to a final concentration of 7 % and incubated for 10 min prior to a centrifugation step of 10 min at 1620 × g. Kyn levels were determined by means of the Kyn sensor^7 at a final concentration of 17.5 µM in sensor buffer (50 mM H3PO4 and 120 mM NaCl (pH=1)). Fluorescence intensity (excitation: 535 nm, emission: 595 nm) was measured using a Spectramax Paradigm reader (Molecular Devices). Data were normalized to the values for cells that were treated with DMSO.
For the manual assay, BxPC3 or SKOV3 cells were seeded in clear 96-well or 384-well plates, respectively, 24 h prior to compound treatment and IFN-γ (50 or 5 ng/mL, respectively) and L-Trp (380 µM) addition as described before.^7 48 h after treatment, TCA was added and Kyn levels were detected by means of 2 % w/v of p-DMAB (Ehrlich reagent) in acetic acid as described by Braun et al^29. The absorbance of the Ehrlich reagent was detected at 492 nm and at 650 nm as background control was measured on Spark® multimode microplate plate reader (Tecan, Austria). Kyn levels were determined by subtracting the absorbance value at 650 nm and presented relative to the DMSO control. Dose-response curves and IC50 values were generated and fitted with GraphPad Prism 6.0 (GraphPad software, USA) using four-parameter variable slope non-linear regression curve fit.
Cells were incubated with IFN-γ, Trp and the compounds for 48 h prior to detection of Kyn levels.
Assay [3] concerns the target T2, recombinant human IDO1 (rhIDO1) (Homo sapiens, UniProt P14902).
T2 construct: Full-length rhIDO protein (1 µM) in 50 mM potassium phosphate buffer; GST (cleaved yes); made in house; host or cells: E. coli
Put plainly: IDO1 enzymatic assay with recombinant protein, Kyn detection with p-DMAB. The assay is classed as biochemical. The note with it: pre-incubated with compounds at 37°C for 40 min; for IC50: determined if inhibition at 59 µM was higher than 50%, read-out: rhIDO1 enzymatic activity IC50 ± SD. The text has this:
Reduction of the kynurenine level in the cell-based model employed for initial SAR exploration can be due to inhibition of enzymatic activity, degradation of IDO1, or both (Table B-2). In order to differentiate between these different activities, we explored the modes of action of selected compounds in an in vitro assay employing recombinant human IDO1 (rhIDO1) monitoring enzymatic activity only, and we characterized the degradation efficiency by means of Western blotting, determining maximum degradation levels at 0.1µM (Dmax) and half maximum degradation concentration (DC50) (Table B-2). Table B-2 in vitro inhibition and degradation of IDO1 by selected compounds. […] Data are mean values ± SD (n = 4, except for compounds 1, 11, and 19 (n=2)). […] Data are mean values of n biological replicates. Dmax corresponds to maximum levels of IDO1 degradation at 0.1 µM.
Full-length rhIDO protein (1 µM) in 50 mM potassium phosphate buffer (50 mM KH2PO4 and 50 mM K2HPO4, pH 6.5) was incubated with the respective compounds for 40 min at 37 °C prior to the addition of 10 mM ascorbic acid, 10 µM methylene blue, 2 mM Trp and 100 µg/mL catalase (Sigma-Aldrich, C100). Samples were incubated for 60 min followed by the addition of trichloroacetic acid to a final concentration of 7 % and further incubation for 30 min at 37 °C. Kyn levels were detected by the addition of an equal volume of 2 % (w/v) p-DMAB in acetic acid and absorbance was measured at 492 nm and 650 nm as a background control. Values are presented relative to the DMSO control. Dose-response curves and IC50 values were generated and fitted with GraphPad Prism 6.0 (GraphPad software, USA) using four-parameter variable slope non-linear regression curve fit.

In assay [4] the target is T3, apo-IDO1 (Homo sapiens, UniProt P14902).
T3 construct: For the ubiquitination assays, IDO1 (residues 5-C) was cloned into a pRSF Duet based vector; His-TEV (N); made in house; host or cells: IDO1: host not restated ('purified as described above', which points to E. coli); KLHDC3-EloB/C: Hi5 insect cells
Put plainly: Pulse-chase ubiquitination assay of apo-IDO1 by CRL2^KLHDC3. The assay is classed as biochemical. The note with it: apo-IDO1 incubated with compounds (30 µM) for 90 min at 37°C; Fig. 3j.

Where [5] appears, read: BxPC-3 cells incubated with IFN-γ, Trp and the compounds for 48 h, read-out: Kyn assay IC50 ± SD.

T1 sequence (P14902 whole entry): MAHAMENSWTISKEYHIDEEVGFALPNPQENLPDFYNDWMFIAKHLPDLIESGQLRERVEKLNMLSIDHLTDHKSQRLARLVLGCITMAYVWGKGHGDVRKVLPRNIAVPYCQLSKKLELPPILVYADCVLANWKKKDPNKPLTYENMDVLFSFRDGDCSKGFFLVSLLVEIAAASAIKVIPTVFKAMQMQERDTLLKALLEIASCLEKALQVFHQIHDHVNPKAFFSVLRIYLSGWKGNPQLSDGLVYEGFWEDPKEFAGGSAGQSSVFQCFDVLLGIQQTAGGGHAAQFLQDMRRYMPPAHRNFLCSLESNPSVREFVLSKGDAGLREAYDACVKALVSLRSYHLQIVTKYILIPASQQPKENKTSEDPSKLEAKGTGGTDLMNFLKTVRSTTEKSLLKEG
T2 sequence (P14902 whole entry): as above
T3 sequence (P14902 5-403 limits assumed): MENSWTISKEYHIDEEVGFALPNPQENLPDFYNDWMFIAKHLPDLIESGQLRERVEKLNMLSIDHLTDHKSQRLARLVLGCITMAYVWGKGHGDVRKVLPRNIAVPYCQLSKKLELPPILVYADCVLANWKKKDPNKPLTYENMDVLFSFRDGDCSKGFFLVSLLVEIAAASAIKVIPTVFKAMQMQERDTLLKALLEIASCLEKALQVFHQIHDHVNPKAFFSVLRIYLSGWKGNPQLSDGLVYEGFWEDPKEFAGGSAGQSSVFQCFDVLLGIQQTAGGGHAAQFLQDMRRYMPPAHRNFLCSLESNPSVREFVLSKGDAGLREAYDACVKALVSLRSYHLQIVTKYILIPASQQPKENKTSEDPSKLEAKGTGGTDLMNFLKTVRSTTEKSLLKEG

Molecule `CC(C)(C)c1ccc(S(=O)(=O)N2C[C@H]3C[C@H]4C[C@H](C4(C)C)[C@@]3(COC(=O)Nc3ccc(I)cc3)C2)cc1` [compound 11, ((3aS,4R,6R,7aS)-2-((4-(tert-butyl)phenyl)sulfonyl)-5,5-dimethyloctahydro-3aH-4,6-methanoisoindol-3a-yl)methyl (4-iodophenyl)carbamate] registered a Dmax at 0.1 µM in assay [1] of 37%. Moreover, the IC50 in assay [2] (setting [5]) is less than 200 nM. Further, in assay [2] (relative to compound 1), the “fold more potent in the Kyn assay than compound 1” value is recorded as 7 fold. Moreover, the “activity in the cell-based kynurenine assay” value in assay [2] was “low nanomolar range”. In assay [3] (in vitro inhibition at 59 uM), the “rhIDO1 enzymatic activity Inhibition [%]” value was “not active; also recorded: inactive”.
In assay [1], `C#Cc1ccc(NC(=O)OC[C@]23CN(S(=O)(=O)c4ccc(C(C)(C)C)cc4)C[C@H]2C[C@H]2C[C@@H]3C2(C)C)cc1` [compound 19] came in with a Dmax at 0.1 µM greater than 60%. Moreover, the “Dmax [%] (n)” value in assay [1] (BxPC3 cells) is given as 62 ± 10 (5) %. The IC50 in assay [2] (setting [5]) is less than 200 nM. For the same molecule, the “activity in the cell-based kynurenine assay” value in assay [2] is reported as “low nanomolar range”. In addition, the inhibition at 59 µM in assay [3] (in vitro inhibition at 59 uM) came out at 49 ± 0.6%.
Taken in the same sequence, the figures for `Cc1cc(C(C)(C)C)ccc1S(=O)(=O)N1C[C@H]2C[C@H]3C[C@H](C3(C)C)[C@@]2(COC(=O)Nc2ccc(I)cc2)C1` [compound 52, ((3aS,4R,6R,7aS)-2-((4-(tert-butyl)-2-methylphenyl)sulfonyl)-5,5-dimethyloctahydro-3aH-4,6-methanoisoindol-3a-yl)methyl (4-iodophenyl)carbamate] were greater than 60%, 65 ± 10(14) %, less than 200 nM, “low nanomolar range” and 48 ± 6%.
`CCc1cc(C(C)(C)C)ccc1S(=O)(=O)N1C[C@H]2C[C@H]3C[C@H](C3(C)C)[C@@]2(COC(=O)Nc2ccc(I)cc2)C1` [compound 53, ((3aS,4R,6R,7aS)-2-((4-(tert-butyl)-2-ethylphenyl)sulfonyl)-5,5-dimethyloctahydro-3aH-4,6-methanoisoindol-3a-yl)methyl (4-iodophenyl)carbamate] returned a maximal degradation (Dmax) at 0.1 µM in assay [1] of 55 to 59%. Moreover, the “Dmax [%] (n)” value in assay [1] (BxPC3 cells) was 56 ± 4 (3) %. Besides, the IC50 in assay [2] (setting [5]) is less than 200 nM. Moreover, in assay [3] (in vitro inhibition at 59 uM), the inhibition at 59 µM is 37 ± 9%.
Taken in the same sequence, the figures for `CC(C)(C)c1ccc(S(=O)(=O)N2C[C@H]3C[C@H]4C[C@H](C4(C)C)[C@@]3(COC(=O)Nc3ccc(I)cc3)C2)c(C2CC2)c1` [compound 54, ((3aS,4R,6R,7aS)-2-((4-(tert-butyl)-2-cyclopropylphenyl)sulfonyl)-5,5-dimethyl-octahydro-3aH-4,6-methanoisoindol-3a-yl)methyl (4-iodophenyl)carbamate] were 55 to 59%, 55 ± 4 (3) %, less than 200 nM and 35 ± 2%.
The like results for `CC(C)(C)c1ccc(S(=O)(=O)N2C[C@H]3C[C@H]4C[C@H](C4(C)C)[C@@]3(COC(=O)Nc3ccc(I)cc3)C2)c(Br)c1` [compound 56, ((3aS,4R,6R,7aS)-2-((2-bromo-4-(tert-butyl)phenyl)sulfonyl)-5,5-dimethyloctahydro-3aH-4,6-methanoisoindol-3a-yl)methyl (4-iodophenyl)carbamate] were, in that order, 55 to 59%, 56 ± 4 (3) %, less than 200 nM and 12 ± 7%.
Consider `CC(C)(CC(=O)O)c1ccc(S(=O)(=O)N2C[C@H]3C[C@H]4C[C@H](C4(C)C)[C@@]3(COC(=O)Nc3ccc(I)cc3)C2)cc1` [compound 63, 3-(4-(((3aS,4R,6R,7aS)-3a-((((4-iodophenyl)carbamoyl)oxy)methyl)-5,5-dimethyloctahydro-2H-4,6-methanoisoindol-2-yl)sulfonyl)phenyl)-3-methylbutanoic acid], for which the Dmax at 0.1 µM in assay [1] fell in the range of 36 to 46%. Further, the “Dmax [%] (n)” value in assay [1] (BxPC3 cells) was 36 ± 2 (3) %. The IC50 is less than 200 nM in assay [2] (setting [5]) and 1900 ± 500 nM in assay [3]. Further, the inhibition at 59 µM in assay [3] (in vitro inhibition at 59 uM) is 67 ± 6%.
In assay [1], `CC(C)(C(=O)O)c1ccc(S(=O)(=O)N2C[C@H]3C[C@H]4C[C@H](C4(C)C)[C@@]3(COC(=O)Nc3ccc(I)cc3)C2)cc1` [compound 65, 2-(4-(((3aS,4R,6R,7aS)-3a-((((4-iodophenyl)carbamoyl)oxy)methyl)-5,5-dimethyloctahydro-2H-4,6-methanoisoindol-2-yl)sulfonyl)phenyl)-2-methylpropanoic acid] came in with a Dmax at 0.1 µM of 36 to 46%. Further, the “Dmax [%] (n)” value in assay [1] (BxPC3 cells) is reported as 46 ± 21 (5) %. The IC50 is less than 200 nM in assay [2] (setting [5]) and 820 ± 140 nM in assay [3]. In assay [2], the “activity in the cell-based kynurenine assay” value is given as “low nanomolar range”. Besides, in assay [3] (in vitro inhibition at 59 uM), the inhibition at 59 µM was 72 ± 4%.
Take `CC(C)(C(=O)O)c1ccc(S(=O)(=O)N2C[C@H]3C[C@H]4C[C@H](C4(C)C)[C@@]3(COC(=O)Nc3ccc(I)cc3)C2)c(Cl)c1` [compound 69, 2-(3-chloro-4-(((3aS,4R,6R,7aS)-3a-((((4-iodophenyl)carbamoyl)oxy)methyl)-5,5-dimethyloctahydro-2H-4,6-methanoisoindol-2-yl)sulfonyl)phenyl)-2-methylpropanoic acid]: the Dmax at 0.1 µM in assay [1] was 20 ± 12%. Further, the figures for the IC50 in assay [2] (setting [5]) and in assay [3] were less than 200 nM and 270 ± 20 nM, respectively. Further, the inhibition at 59 µM in assay [3] (in vitro inhibition at 59 uM) turned out to be 55 ± 2%.
Molecule `Cc1cc(C(C)(C)C(=O)O)ccc1S(=O)(=O)N1C[C@H]2C[C@H]3C[C@H](C3(C)C)[C@@]2(COC(=O)Nc2ccc(I)cc2)C1` [compound 70, 2-(4-(((3aS,4R,6R,7aS)-3a-((((4-iodophenyl)carbamoyl)oxy)methyl)-5,5-dimethyloctahydro-2H-4,6-methanoisoindol-2-yl)sulfonyl)-3-methylphenyl)-2-methylpropanoic acid] had a Dmax at 0.1 µM in assay [1] of 18 ± 19%. Also, the IC50 was less than 200 nM in assay [2] (setting [5]) and 110 ± 20 nM in assay [3]. In addition, the inhibition at 59 µM in assay [3] (in vitro inhibition at 59 uM) came out at 62 ± 1%.
`C#Cc1ccc(NC(=O)OC[C@]23CN(S(=O)(=O)c4ccc(C(C)(C)C)cc4C)C[C@H]2C[C@H]2C[C@@H]3C2(C)C)cc1` [compound 71, ((3aS,4R,6R,7aS)-2-((4-(tert-butyl)-2-methylphenyl)sulfonyl)-5,5-dimethylocta-hydro-3aH-4,6-methanoisoindol-3a-yl)methyl (4-ethynylphenyl)carbamate]: the “IDO1 ubiquitination by CRL2^KLHDC3” value in assay [4] was “ubiquitinated”. In assay [1], the Dmax at 0.1 µM worked out at 74 ± 13%. Further, in assay [3] (in vitro inhibition at 59 uM), the inhibition at 59 µM is 30 ± 5%.
On to `C#Cc1ccc(NC(=O)OC[C@]23CN(S(=O)(=O)c4ccc(C(C)(C)C)cc4CC)C[C@H]2C[C@H]2C[C@@H]3C2(C)C)cc1` [compound 72, ((3aS,4R,6R,7aS)-2-((4-(tert-butyl)-2-ethylphenyl)sulfonyl)-5,5-dimethylocta-hydro-3aH-4,6-methanoisoindol-3a-yl)methyl(4-ethynylphenyl) carbamate], for which, in assay [1] (BxPC3 cells), the “Dmax [%] (n)” value turned out to be 75%. Moreover, the “DC50 ± SD [nM]” value in assay [1] (half-maximal degradation concentration, BxPC3 cells, immunoblotting) is given as “low nanomolar range”. Also, the IC50 in assay [2] (read-out: IC50 value in the Kyn assay, Kyn assay) was 11 nM; in assay [2] (read-out: Kyn assay IC50 ± SD, BxPC-3 cells incubated with IFN-γ, Trp and the compounds for 48 h), less than 200 nM. In assay [3] (in vitro inhibition at 59 uM), the inhibition at 59 µM amounted to 62 ± 5%.
Regarding `C#Cc1ccc(NC(=O)OC[C@]23CN(S(=O)(=O)c4ccc(C(C)(C)C(=O)O)cc4)C[C@H]2C[C@H]2C[C@@H]3C2(C)C)cc1` [compound 74, 2-(4-(((3aS,4R,6R,7aS)-3a-((((4-ethynylphenyl)carbamoyl)oxy)methyl)-5,5-dimethyloctahydro-2H-4,6-methanoisoindol-2-yl)sulfonyl)phenyl)-2-methylpropanoic acid], in assay [1], the greatest degradation seen (Dmax) at 0.1 µM is 54 ± 8%. Further, the IC50 was less than 200 nM in assay [2] (setting [5]) and 310 ± 60 nM in assay [3]. Also, in assay [2], the “activity in the cell-based kynurenine assay” value was “low nanomolar range”. In addition, in assay [3] (in vitro inhibition at 59 uM), the inhibition at 59 µM is 78 ± 3%.
